In patent US20240308985A1 (Psy Therapeutics, Inc., priority 2021, published 2024) one finds IC50 data, which are given here for 23 molecules.

Like-named read-outs stand apart in the source and are kept apart here.

This test addresses Monoacylglycerol Lipase (MAGL) (Homo sapiens (Human), UniProt Q99685). The experiment in a line: MAGL inhibition potency (IC50) assay with 4NPA substrate. It counts as biochemical.
The mark [1] stands for this setting: Method 11: Reaction Biology MAGL enzyme, 25 nM (name: Conc 20), read-out: MAGL Potency (Detection Method).
[2] abbreviates: Method 12: Reaction Biology MAGL enzyme, 15 nM, read-out: MAGL Potency (Detection Method).
The mark [3] stands for this setting: Method 13: Reaction Biology MAGL enzyme, 12 nM, read-out: MAGL Potency (Detection Method).
The mark [4] stands for this setting: Method 12: Reaction Biology MAGL enzyme, 15 nM, read-out: Potency (MAGL inhibition).

Sequence of Monoacylglycerol Lipase (MAGL) (Q99685 2-303): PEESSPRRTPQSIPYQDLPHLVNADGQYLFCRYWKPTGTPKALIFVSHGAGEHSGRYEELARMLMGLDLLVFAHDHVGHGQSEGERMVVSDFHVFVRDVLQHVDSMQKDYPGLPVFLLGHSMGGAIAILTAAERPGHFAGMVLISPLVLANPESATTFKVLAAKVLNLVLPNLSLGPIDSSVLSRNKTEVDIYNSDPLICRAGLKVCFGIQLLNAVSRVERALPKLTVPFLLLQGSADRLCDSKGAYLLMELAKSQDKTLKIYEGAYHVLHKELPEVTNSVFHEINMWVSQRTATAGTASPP

For the molecule `Cc1ccc(F)cc1-c1cc(C)n(C2CC3(C2)CN(C(=O)c2ccc(F)cc2OC(F)F)C3)n1` [Compound 455, (2-difluoromethoxy-4-fluorophenyl){6-[3-(5-fluoro-2-tolyl)-5-methyl-1-pyrazolyl]-2-aza-2-spiro[3.3]heptyl}methanone], the IC50 (Method 6: Reaction Biology MAGL enzyme, 6 nM, read-out: MAGL Potency (Detection Method)) was in the range of 0.05 to 0.15 µM.
Take `Cc1ccc(F)cc1-c1cc(C(F)(F)F)n(C2CC3(C2)CN(C(=O)c2ccc(F)cc2OC2CC2)C3)n1` [Compound 456, (2-cyclopropoxy-4-fluorophenyl){6-[3-(5-fluoro-2-tolyl)-5-(trifluoromethyl)-1-pyrazolyl]-2-aza-2-spiro[3.3]heptyl}methanone]: the IC50 under setting [1] is 0.5 to 1 µM.
For `Cc1ccc(F)cc1-c1cc(C(F)(F)F)nn1C1CC2(C1)CN(C(=O)c1ccc(F)cc1OC1CC1)C2` [Compound 457, (2-cyclopropoxy-4-fluorophenyl){6-[5-(5-fluoro-2-tolyl)-3-(trifluoromethyl)-1-pyrazolyl]-2-aza-2-spiro[3.3]heptyl}methanone], the IC50 under setting [1] was in the range of 1 to 5.1 µM.
The same measure, in the same setting: in the case of `COc1cc(F)ccc1C(=O)N1CC2(CC(n3nc(-c4cc(F)ccc4C)cc3C(F)(F)F)C2)C1` [Compound 458, (4-fluoro-2-methoxyphenyl){6-[3-(5-fluoro-2-tolyl)-5-(trifluoromethyl)-1-pyrazolyl]-2-aza-2-spiro[3.3]heptyl}methanone] it was 1 to 5.1 µM; in that of `CCOc1cc(F)ccc1C(=O)N1CC2(CC(n3nc(C)cc3-c3ccccc3C)C2)C1` [Compound 460], 1 to 5.1 µM.
Same read-out and setting: to `CCOc1cc(F)ccc1C(=O)N1CC2(CC(n3nc(-c4ccccc4C)cc3C)C2)C1` [Compound 461, (2-ethoxy-4-fluorophenyl){6-[5-methyl-3-(o-tolyl)-1-pyrazolyl]-2-aza-2-spiro[3.3]heptyl}methanone] belongs 0.5 to 1 µM.
Turning to `CCOc1cc(F)ccc1C(=O)N1CC2(CC(n3nc(C)cc3-c3cc(F)ccc3C)C2)C1` [Compound 462, (2-ethoxy-4-fluorophenyl){6-[5-(5-fluoro-2-tolyl)-3-methyl-1-pyrazolyl]-2-aza-2-spiro[3.3]heptyl}metbanone], under setting [1], the IC50 was 1 to 5.1 µM.
For the molecule `CCOc1cc(F)ccc1C(=O)N1CC2(CC(n3nc(-c4cc(F)ccc4C)cc3C)C2)C1` [Compound 463, (2-ethoxy-4-fluorophenyl){6-[3-(5-fluoro-2-tolyl)-5-methyl-1-pyrazolyl]-2-aza-2-spiro[3.3]heptyl}methanone], the IC50 under setting [1] lay in the range of 0.5 to 1 µM.
With `Cc1cc(-c2ccccc2C)n(C2CC3(C2)CN(C(=O)c2ccc(F)cc2OCC(F)(F)F)C3)n1` [Compound 464, [4-fluoro-2-(2,2,2-trifluoroethoxy)phenyl]{6-[3-methyl-5-(o-tolyl)-1-pyrazolyl]-2-aza-2-spiro[3.3]heptyl}methanone], the IC50 under setting [1] was in the range of 0.5 to 1 µM.
Still for that read-out and setting: to `Cc1ccccc1-c1cc(C)n(C2CC3(C2)CN(C(=O)c2ccc(F)cc2OCC(F)(F)F)C3)n1` [Compound 465, [4-fluoro-2-(2,2,2-trifluoroethoxy)phenyl]{6-[5-methyl-3-(o-tolyl)-1-pyrazolyl]-2-aza-2-spiro[3.3]heptyl}methanone] belongs 0.15 to 0.5 µM.
On the same count and under the same terms, to `Cc1cc(-c2cc(F)ccc2C)n(C2CC3(C2)CN(C(=O)c2ccc(F)cc2OCC(F)(F)F)C3)n1` [Compound 466] belongs 0.5 to 1 µM; to `Cc1ccc(F)cc1-c1cc(C)n(C2CC3(C2)CN(C(=O)c2ccc(F)cc2OCC(F)(F)F)C3)n1` [Compound 467, {6-[3-(5-fluoro-2-tolyl)-5-methyl-1-pyrazolyl]-2-aza-2-spiro[3.3]heptyl} [4-fluoro-2-(2,2,2-trifluoroethoxy)phenyl]methanone], 0.15 to 0.5 µM.
On to `Cc1ccc(F)c(-c2nn(C3CC4(C3)CN(C(=O)c3cc(O)ccc3F)C4)cc2C(F)(F)F)c1` [Compound 475, (2-fluoro-5-hydroxyphenyl){6-[3-(2-fluoro-5-tolyl)-4-(trifluoromethyl)-1-pyrazolyl]-2-aza-2-spiro[3.3]heptyl}methanone], for which, under setting [2], the IC50 was < 0.05 µM.
Take `Cc1cn(C2CC3(C2)CN(C(=O)c2cc(O)ccc2F)C3)nc1-c1cc(F)ccc1F` [Compound 477, {6-[3-(2,5-difluorophenyl)-4-methyl-1-pyrazolyl]-2-aza-2-spiro[3.3]heptyl}(2-fluoro-5-hydroxyphenyl)methanone]: the IC50 under setting [3] was < 0.05 µM.
Still for that read-out and setting: to `O=C(c1cc(O)ccc1F)N1CC2(CC(n3nc(C(F)(F)F)cc3-c3ccccc3C(F)(F)F)C2)C1` [Compound 487, (2-fluoro-5-hydroxyphenyl)(6-{3-(trifluoromethyl)-5-[o-(trifluoromethyl)phenyl]-1-pyrazolyl}-2-aza-2-spiro[3.3]heptyl)methanone] belongs 0.15 to 0.5 µM.
Consider `O=C(c1cc(O)ccc1F)N1CC2(CC(n3cc(C4CC4)c(-c4ccccc4C(F)(F)F)n3)C2)C1` [Compound 488, (6-{4-cyclopropyl-3-[o-(trifluoromethyl)phenyl]-1-pyrazolyl}-2-aza-2-spiro[3.3]heptyl)(2-fluoro-5-hydroxyphenyl)methanone], for which, under setting [2], the IC50 was < 0.05 µM.
Regarding `Cc1cnn(C2CC3(C2)CN(C(=O)c2cc(O)ccc2C(F)(F)F)C3)c1-c1ccccc1F` [Compound 494], the IC50 under setting [4] was > 10 µM.
Same read-out and setting: to `Cc1cn(C2CC3(C2)CN(C(=O)c2cc(O)ccc2C(F)(F)F)C3)nc1-c1ccccc1F` [Compound 495] belongs > 10 µM; to `O=C(c1c(F)cccc1OC1CC1)N1CC2(CC(n3ncc(C(F)(F)F)c3-c3ccccc3F)C2)C1` [Compound 521], > 10 µM.
Regarding `O=C(c1c(F)cccc1OC1CC1)N1CC2(CC(n3cc(C(F)(F)F)c(-c4ccccc4F)n3)C2)C1` [Compound 522, (2-cyclopropoxy-6-fluorophenyl){6-[3-(o-fluorophenyl)-4-(trifluoromethyl)-1-pyrazolyl]-2-aza-2-spiro[3.3]heptyl}methanone], the IC50 under setting [2] was in the range of 1 to 5.1 µM.
Same read-out and setting: to `O=C(c1ccc(F)cc1OC1CC1)N1CC2(CC(n3ncc(C(F)(F)F)c3-c3ccccc3F)C2)C1` [Compound 523, (2-cyclopropoxy-4-fluorophenyl) {6-[5-(o-fluorophenyl)-4-(trifluoromethyl)~1-pyrazolyl]-2-aza-2-spiro[3.3]heptyl}methanone] belongs 1 to 5.1 µM.
In the case of `O=C(c1ccc(F)cc1OC1CC1)N1CC2(CC(n3cc(C(F)(F)F)c(-c4ccccc4F)n3)C2)C1` [Compound 524, (2-cyclopropoxy-4-fluorophenyl){6-[3-(o-fluorophenyl)-4-(trifluoromethyl)-1-pyrazolyl]-2-aza-2-spiro[3.3]heptyl}methanone], under setting [2], the IC50 lay in the range of 0.15 to 0.5 µM.
The same measure, in the same setting: in the case of `O=C(c1cc(O)ccc1F)N1CC2(CC(n3ccc(-c4ccccc4C(F)(F)F)n3)C2)C1` [Compound 525, (2-fluoro-5-hydroxyphenyl)(6-{3-[o-(trifluoromethyl)phenyl]-1-pyrazolyl}-2-aza-2-spiro[3.3]heptyl)methanone] it was < 0.05 µM.
